# Experimental data from patent US7173018B2, “Phospholipid derivatives of non-steroidal anti-inflammatory drugs” (D-Pharm, Ltd., priority 1998, dated 2007).
# What was measured:
# [1] = In vitro cleavage of DP-DFC to free diclofenac in rat brain homogenate; assay type: in vitro ADME; conditions: for Cleavage of diclofenac from its lipid conjugate: brain homogenate, 37° C., up to 6 hours
# Procedure: (§1) The ability of the compounds of the invention to be cleaved to yield free diclofenac, was studied in vitro in homogenates of rat brain and liver. Two compounds were tested: the prodrug 1-Stearoyl-2-{4-[2-(2,6-dichloroanilino)-phenylacetamido]butanoyl}-sn-glycero-3-phosphocholine (DP-DFC; Z=3), and the compound 1-Stearoyl-2-{3-[2-(2,6-dichloroanilino)-phenylacetamido]propanoyl}-sn-glycero-3-phosphatidylcholine (DP-DFC; Z=2), comprising, respectively, a bridging group having a total of 4 and 3 carbon atoms.
# (§2) Liver and brain were surgically removed, under pentobarbitone anesthesia, from male Sabra rats weighing 250–280 g. About 1–1.5 g samples from each tissue were homogenized in PBS pH=7.4 (Dulbecco) at a ratio of 1:9 w/v of tissue to buffer.
# (§3) DP-DFC was added to each homogenate to a final concentration of 40 μg/ml. The mixtures were incubated at 37° C. in shaking for 1, 2, 3 and 6 hours, and then were placed on ice to stop the reaction.
# (§4) The amounts of free diclofenac in 1 ml samples from either the brain or liver homogenates were determined by reverse phase HPLC assay. The amount of protein in each sample was assayed by the Lowry method.
# (§5) The result for each time point represents the average of five repetitions using tissues from five individual animals.
# (§6) In order to evaluate the effect of temperature on the reaction, a parallel set of incubations was carried out at 4° C.
# [2] = Solubility measurements of lipid derivatives in water, saline, ethanol and octanol; conditions: for solubility: 22 °C; for Solubility (mg/ml) Saline / Solubility (mg/ml) Water: 22° C.; a) gel, b) suspension obtained after filtration through 0.45 μm filter
# Procedure: The solubility of several lipid derivatives of diclofenac, indomethacin, ibuprofen, naproxen and 6-methoxy-2-naphthylacetic acid was determined at room temperature (22° C.) in aqueous solutions (water and saline) and in organic solutions (ethanol and octanol). In addition, the partition coefficient (Pc) values for these compounds, i.e their distribution ratios between the organic and the aqueous phases (octanol/saline), were calculated.
# [3] = In vitro cleavage of DP-DFC to free diclofenac in rat liver homogenate; assay type: in vitro ADME; conditions: 37° C., up to 6 hours
# Procedure: as §1, §2, §3, §4, §5, §6
# [4] = Octanol/saline distribution (partition coefficient Pc), shake-flask technique; conditions: for log Pc (octanol/saline distribution coefficient): 22° C., shake-flask
# Procedure: In addition, the partition coefficient (Pc) values for these compounds, i.e their distribution ratios between the organic and the aqueous phases (octanol/saline), were calculated.
# The distribution of the compounds between the organic and the aqueous phases was measured by the shake-flask technique. Five milliliters of octanol containing about 3 mg of the studied compound were mixed with 5 ml saline. The mixture was shaken overnight at 22° C. before the octanol and saline phases were separated. One ml from each phase was dissolved into an appropriate volume of ethanol so that the optical absorption of the obtained solution is in range of 0.1 to 1.0.
# The coefficient Pc is calculated by the following ratio:
# [formula] where Aoct is the optical absorption, at λmax, of the ethanol solution in which one ml of octanol phase is dissolved, V1 is the volume of this ethanol solution and l1 is the width (cm) of the cuvette used for measurement of the optical absorption.
# Asal is the optical absorption, at λmax, of the ethanol solution in which the one ml of saline phase is dissolved, V2 is the volume of this ethanol solution and l2 is the width (cm) of the cuvette used for measurement of the optical absorption.
compound,measurement,setting,value
"CCCCCCCCCCCCCCCCCC(=O)OC[C@H](COP(=O)([O-])OCC[N+](C)(C)C)OC(=O)CCNC(=O)Cc1ccccc1Nc1c(Cl)cccc1Cl [DCF n=2, 1-Stearoyl-2-{3-[2-(2,6-dichloroanilino)phenylacetamido]propanoyl}-sn-glycero-3-phosphocholine]",Cleavage of diclofenac from its lipid conjugate,[1],not
same,solubility,"[2]; saline, saline or isotonic",2 µg/mL
same,solubility,[2]; water,3 µg/mL
same,Cleavage of diclofenac from its lipid conjugate,[3],not
same,logD,[4],2.8 ± 0.1
"CCCCCCCCCCCCCCCCCC(=O)OC[C@H](COP(=O)([O-])OCC[N+](C)(C)C)OC(=O)CCCNC(=O)Cc1ccccc1Nc1c(Cl)cccc1Cl [DCF n=3, 1-Stearoyl-2-{4-[2-(2,6-dichloroanilino)phenylacetamido]butanoyl}-sn-glycero-3-phosphocholine]",Cleavage of diclofenac from its lipid conjugate,[1],significant cleavage
same,Cleavage of prodrug to DFC on cooling to 4° C.,[1]; parallel set of incubations in homogenates at 4° C. (data not shown),completely inhibited
same,solubility,"[2]; saline, saline or isotonic",2 µg/mL
same,solubility,[2]; water,2 µg/mL
same,Cleavage of diclofenac from its lipid conjugate,[3],significant cleavage
same,log Pc (octanol/saline distribution coefficient),[4],≧3
"CCCCCCCCCCCCCCCCCC(=O)OC[C@H](COP(=O)([O-])OCC[N+](C)(C)C)OC(=O)CCCCNC(=O)Cc1ccccc1Nc1c(Cl)cccc1Cl [DCF n=4, 1-Stearoyl-2-{5-[2-(2,6-dichloroanilino)phenylacetamido]valeroyl}-sn-glycero-3-phosphocholine]",solubility,"[2]; saline, saline or isotonic",2 µg/mL
same,solubility,[2]; water,2 µg/mL
same,log Pc (octanol/saline distribution coefficient),[4],≧3
"CCCCCCCCCCCCCCCCCC(=O)OC[C@H](COP(=O)([O-])OCC[N+](C)(C)C)OC(=O)CCCCCCCNC(=O)Cc1ccccc1Nc1c(Cl)cccc1Cl [DCF n=7, 1-Stearoyl-2-{8-[2-(2,6-dichloroanilino)phenylacetamido]octanoyl}-sn-glycero-3-phosphocholine]",solubility,"[2]; saline, saline or isotonic",1 µg/mL
same,solubility,[2]; water,1 µg/mL
same,log Pc (octanol/saline distribution coefficient),[4],≧3
"CCCCCCCCCCCCCCCCCC(=O)OC[C@H](COP(=O)([O-])OCC[N+](C)(C)C)OC(=O)CCCCCCCCCCCNC(=O)Cc1ccccc1Nc1c(Cl)cccc1Cl [DCF n=11, 1-Stearoyl-2-{12-[2-(2,6-dichloroanilino)phenylacetamido]dodecanoyl}-sn-glycero-3-phosphocholine]",solubility,"[2]; saline, saline or isotonic",< 1 µg/mL
same,solubility,[2]; water,< 1 µg/mL
same,log Pc (octanol/saline distribution coefficient),[4],≧2.5
"CCCCCCCCCCCCCCCCCC(=O)OC[C@H](COP(=O)([O-])OCC[N+](C)(C)C)OC(=O)CCNC(=O)C(C)c1ccc(CC(C)C)cc1 (stereo partly drawn) [Ibu n=2, 1-Stearoyl-2-{3-[α-methyl-4-(2-methylpropyl)benzeneacetamido]propanoyl}-sn-glycero-3-phosphocholine]",solubility,"[2]; saline, saline or isotonic",300 µg/mL
same,solubility,[2]; water,200 µg/mL
same,logD,[4],1.8
"CCCCCCCCCCCCCCCCCC(=O)OC[C@H](COP(=O)([O-])OCC[N+](C)(C)C)OC(=O)CCCCCNC(=O)C(C)c1ccc(CC(C)C)cc1 (stereo partly drawn) [Ibu n=5, 1-Stearoyl-2-{6-[α-methyl-4-(2-methylpropyl)benzeneacetamido]hexanoyl}-sn-glycero-3-phosphocholine]",solubility,"[2]; saline, saline or isotonic",500 µg/mL
same,solubility,[2]; water,500 µg/mL
same,log Pc (octanol/saline distribution coefficient),[4],≧3
"CCCCCCCCCCCCCCCCCC(=O)OC[C@H](COP(=O)([O-])OCC[N+](C)(C)C)OC(=O)CCNC(=O)Cc1c(C)n(C(=O)c2ccc(Cl)cc2)c2ccc(OC)cc12 [Indo n=2, 1-Stearoyl-2-{3-[1-(p-chlorobenzoyl)-5-methoxy-2-methyl-3-indolylacetamido]propanoyl}-sn-glycero-3-phosphocholine]",solubility,"[2]; saline, saline or isotonic",~1500 µg/mL
same,solubility,[2]; water,< 900 µg/mL
same,logD,[4],2.5
"CCCCCCCCCCCCCCCCCC(=O)OC[C@H](COP(=O)([O-])OCC[N+](C)(C)C)OC(=O)CCCNC(=O)Cc1c(C)n(C(=O)c2ccc(Cl)cc2)c2ccc(OC)cc12 [Indo n=3, 1-Stearoyl-2-{4-[1-(p-chlorobenzoyl)-5-methoxy-2-methyl-3-indolylacetamido]butanoyl}-sn-glycero-3-phosphocholine]",solubility,"[2]; saline, saline or isotonic",~1500 µg/mL
same,solubility,[2]; water,< 600 µg/mL
same,logD,[4],2.5
"CCCCCCCCCCCCCCCCCC(=O)OC[C@H](COP(=O)([O-])OCC[N+](C)(C)C)OC(=O)CCCCNC(=O)Cc1c(C)n(C(=O)c2ccc(Cl)cc2)c2ccc(OC)cc12 [Indo n=4, 1-Stearoyl-2-{5-[1-(p-chlorobenzoyl)-5-methoxy-2-methyl-3-indolylacetamido]valeroyl}-sn-glycero-3-phosphocholine]",solubility,"[2]; saline, saline or isotonic",~100 µg/mL
same,solubility,[2]; water,< 10 µg/mL
same,log Pc (octanol/saline distribution coefficient),[4],2.9
"CCCCCCCCCCCCCCCCCC(=O)OC[C@H](COP(=O)([O-])OCC[N+](C)(C)C)OC(=O)CCCCCNC(=O)Cc1c(C)n(C(=O)c2ccc(Cl)cc2)c2ccc(OC)cc12 [Indo n=5, 1-Stearoyl-2-{6-[1-(p-chlorobenzoyl)-5-methoxy-2-methyl-3-indolylacetamido]hexanoyl}-sn-glycero-3-phosphocholine]",solubility,"[2]; saline, saline or isotonic",~10 µg/mL
same,solubility,[2]; water,< 10 µg/mL
same,logD,[4],3.2
"CCCCCCCCCCCCCCCCCC(=O)OC[C@H](COP(=O)([O-])OCC[N+](C)(C)C)OC(=O)CCCCCCCNC(=O)Cc1c(C)n(C(=O)c2ccc(Cl)cc2)c2ccc(OC)cc12 [Indo n=7, 1-Stearoyl-2-{8-[1-(p-chlorobenzoyl)-5-methoxy-2-methyl-3-indolylacetamido]octanoyl}-sn-glycero-3-phosphocholine]",solubility,[2]; water,~5 µg/mL
same,logD,[4],3.7
"CCCCCCCCCCCCCCCCCC(=O)OC[C@H](COP(=O)([O-])OCC[N+](C)(C)C)OC(=O)CCNC(=O)[C@@H](C)c1ccc2cc(OC)ccc2c1 [Nap n=2, 1-Stearoyl-2-{3-[(S)-6-methoxy-α-methyl-2-naphtaleneacetamido]propanoyl}-sn-glycero-3-phosphocholine]",Solubility (mg/ml) Saline,[2],0.06^a) mg/ml
same,Solubility (mg/ml) Water,[2],0.01^a) mg/ml
same,log Pc (octanol/saline distribution coefficient),[4],≧3
"CCCCCCCCCCCCCCCCCC(=O)OC[C@H](COP(=O)([O-])OCC[N+](C)(C)C)OC(=O)CCCNC(=O)[C@@H](C)c1ccc2cc(OC)ccc2c1 [Nap n=3, 1-Stearoyl-2-{4-[(S)-6-methoxy-α-methyl-2-naphtaleneacetamido]butanoyl}-sn-glycero-3-phosphocholine]",Solubility (mg/ml) Saline,[2],0.09^a) mg/ml
same,Solubility (mg/ml) Water,[2],0.12^a) mg/ml
same,log Pc (octanol/saline distribution coefficient),[4],≧3
"CCCCCCCCCCCCCCCCCC(=O)OC[C@H](COP(=O)([O-])OCC[N+](C)(C)C)OC(=O)CCCCCNC(=O)[C@@H](C)c1ccc2cc(OC)ccc2c1 [Nap n=5, 1-Stearoyl-2-{6-[(S)-6-methoxy-α-methyl-2-naphtaleneacetamido]hexanoyl}-sn-glycero-3-phosphocholine]",Solubility (mg/ml) Saline,[2],0.2^a) mg/ml
same,Solubility (mg/ml) Water,[2],0.2^a) mg/ml
same,log Pc (octanol/saline distribution coefficient),[4],≧3
